The text below walks through data of patent publication US11319299B2, “Substituted carboxamides as inhibitors of WDR5 protein-protein binding” (PROPELLON THERAPEUTICS INC., priority 2016, dated 2022).

The structures appear in SMILES notation.

The assay deals with WDR5 (Homo sapiens (Human), UniProt P61964). In words: Surface Plasmon Resonance (SPR) assay, KD and residence time. It is filed as binding. As to conditions: surface plasmon resonance (SPR); read-out: WDR5 binding affinity (KD).

On to `C[C@@H]1CN(c2cc(F)c(-c3ccc(F)c(C(N)=O)c3)cc2NC(=O)c2cn(C)c(=O)cc2C(F)F)C[C@H](C)N1C` [Example 591, N-[5-(3-carbamoyl-4-fluorophenyl)-4-fluoro-2-[(3R,5S)-3,4,5-trimethylpiperazin-1-yl]phenyl]-4-(difluoromethyl)-1-methyl-6-oxopyridine-3-carboxamide], for which the dissociation constant (Kd) was found to be 15.5 nM.
The figure for `C[C@@H]1CN(c2cc(F)c(-c3ccc(C(N)=O)c(F)c3)cc2NC(=O)c2cn(C)c(=O)cc2C(F)F)C[C@H](C)N1C` [Example 592, N-[5-(4-carbamoyl-3-fluorophenyl)-4-fluoro-2-[(3R,5S)-3,4,5-trimethylpiperazin-1-yl]phenyl]-4-(difluoromethyl)-1-methyl-6-oxopyridine-3-carboxamide] is 6.8 nM.
For `CC(C)OC(=O)N1CCC=C(c2cc(NC(=O)c3c[nH]c(=O)cc3C(F)(F)F)c(N3C[C@@H](C)N(C)[C@@H](C)C3)cc2F)C1` [Example 601, propan-2-yl 5-[2-fluoro-5-[[6-oxo-4-(trifluoromethyl)-1H-pyridine-3-carbonyl]amino]-4-[(3R,5S)-3,4,5-trimethylpiperazin-1-yl]phenyl]-3,6-dihydro-2H-pyridine-1-carboxylate], the equilibrium dissociation constant (Kd) was found to be 0.271 nM.
With `CC(C)OC(=O)N1CC=C(c2cc(NC(=O)c3c[nH]c(=O)cc3C(F)(F)F)c(N3C[C@@H](C)N(C)[C@@H](C)C3)cc2F)CC1` [Example 602, propan-2-yl 4-[2-fluoro-5-[[6-oxo-4-(trifluoromethyl)-1H-pyridine-3-carbonyl]amino]-4-[(3R,5S)-3,4,5-trimethylpiperazin-1-yl]phenyl]-3,6-dihydro-2H-pyridine-1-carboxylate], the dissociation constant (Kd) was 0.475 nM.
Turning to `CNC(=O)c1ccc(-c2cc(NC(=O)c3c[nH]c(=O)cc3C(F)(F)F)c(N3C[C@@H](C)N(C)[C@@H](C)C3)cc2F)cc1F` [Example 603, N-[4-fluoro-5-[3-fluoro-4-(methylcarbamoyl)phenyl]-2-[(3R,5S)-3,4,5-trimethylpiperazin-1-yl]phenyl]-6-oxo-4-(trifluoromethyl)-1H-pyridine-3-carboxamide], the Kd is 1.09 nM.
As to `CNC(=O)c1cc(-c2cc(NC(=O)c3c[nH]c(=O)cc3C(F)(F)F)c(N3C[C@@H](C)N(C)[C@@H](C)C3)cc2F)ccc1F` [Example 604, N-[4-fluoro-5-[4-fluoro-3-(methylcarbamoyl)phenyl]-2-[(3R,5S)-3,4,5-trimethylpiperazin-1-yl]phenyl]-6-oxo-4-(trifluoromethyl)-1H-pyridine-3-carboxamide], the Kd was 1.71 nM.
Consider `CNC(=O)c1ccc(-c2cc(NC(=O)c3c[nH]c(=O)cc3C(F)F)c(N3C[C@@H](C)N(C)[C@@H](C)C3)cc2F)cc1F` [Example 605, 4-(difluoromethyl)-N-[4-fluoro-5-[3-fluoro-4-(methylcarbamoyl)phenyl]-2-[(3R,5S)-3,4,5-trimethylpiperazin-1-yl]phenyl]-6-oxo-1H-pyridine-3-carboxamide], for which the Kd was found to be 0.6 nM.
On to `CNC(=O)c1cc(-c2cc(NC(=O)c3c[nH]c(=O)cc3C(F)F)c(N3C[C@@H](C)N(C)[C@@H](C)C3)cc2F)ccc1F` [Example 606, 4-(difluoromethyl)-N-[4-fluoro-5-[4-fluoro-3-(methylcarbamoyl)phenyl]-2-[(3R,5S)-3,4,5-trimethylpiperazin-1-yl]phenyl]-6-oxo-1H-pyridine-3-carboxamide], for which the dissociation constant Kd is 1.86 nM.
Regarding `C[C@@H]1CN(c2cc(F)c(C3=CCN(C(=O)N4CCCC4)C3)cc2NC(=O)c2c[nH]c(=O)cc2C(F)F)C[C@H](C)N1C` [Example 612, 4-(Difluoromethyl)-N-(4-fluoro-5-(1-(pyrrolidine-1-carbonyl)-2,5-dihydro-1H-pyrrol-3-yl)-2-((3S,5R)-3,4,5-trimethylpiperazin-1-yl)phenyl)-6-oxo-1,6-dihydropyridine-3-carboxamide], the equilibrium dissociation constant (Kd) was found to be 1.94 nM.
`C[C@@H]1CN(c2cc(F)c(C3=CCCN(c4ncc(C#N)s4)C3)cc2NC(=O)c2c[nH]c(=O)cc2C(F)(F)F)C[C@H](C)N1C` [Example 615, N-[5-[1-(5-cyano-1,3-thiazol-2-yl)-3,6-dihydro-2H-pyridin-5-yl]-4-fluoro-2-[(3R,5S)-3,4,5-trimethylpiperazin-1-yl]phenyl]-6-oxo-4-(trifluoromethyl)-1H-pyridine-3-carboxamide]: the dissociation constant Kd was 0.375 nM.
As to `C[C@@H]1CN(c2cc(F)c(-c3csc(N4CCOCC4)n3)cc2NC(=O)c2c[nH]c(=O)cc2C(F)(F)F)C[C@H](C)N1C` [Example 616, N-[4-fluoro-5-(2-morpholin-4-yl-1,3-thiazol-4-yl)-2-[(3R,5S)-3,4,5-trimethylpiperazin-1-yl]phenyl]-6-oxo-4-(trifluoromethyl)-1H-pyridine-3-carboxamide], the dissociation constant (Kd) is 0.748 nM.
For `C[C@@H]1CN(c2cc(F)c(-c3cnc(N4CCOCC4)s3)cc2NC(=O)c2c[nH]c(=O)cc2C(F)(F)F)C[C@H](C)N1C` [Example 619, N-[4-fluoro-5-(2-morpholin-4-yl-1,3-thiazol-5-yl)-2-[(3R,5S)-3,4,5-trimethylpiperazin-1-yl]phenyl]-6-oxo-4-(trifluoromethyl)-1H-pyridine-3-carboxamide], the Kd was 0.948 nM.
As for `C[C@@H]1CN(c2cc(F)c(-c3csc(N4CCOCC4)n3)cc2NC(=O)c2cn(C)c(=O)cc2C(F)F)C[C@H](C)N1C` [Example 622, 4-(difluoromethyl)-N-[4-fluoro-5-(2-morpholin-4-yl-1,3-thiazol-4-yl)-2-[(3R,5S)-3,4,5-trimethylpiperazin-1-yl]phenyl]-1-methyl-6-oxopyridine-3-carboxamide], the Kd came to 5.15 nM.
On to `C[C@@H]1CN(c2cc(F)c(-c3cnc(N4CCOCC4)s3)cc2NC(=O)c2cn(C)c(=O)cc2C(F)F)C[C@H](C)N1C` [Example 623, 4-(difluoromethyl)-N-[4-fluoro-5-(2-morpholin-4-yl-1,3-thiazol-5-yl)-2-[(3R,5S)-3,4,5-trimethylpiperazin-1-yl]phenyl]-1-methyl-6-oxopyridine-3-carboxamide], for which the dissociation constant (Kd) turned out to be 5.57 nM.
As to `C[C@@H]1CN(c2cc(F)c(-c3cc(C(=O)NC(C)(C)CC(C)(C)C)c(F)cc3F)cc2NC(=O)c2c[nH]c(=O)cc2C(F)(F)F)C[C@H](C)N1C` [Example 626, N-[5-[2,4-difluoro-5-(2,4,4-trimethylpentan-2-ylcarbamoyl)phenyl]-4-fluoro-2-[(3R,5S)-3,4,5-trimethylpiperazin-1-yl]phenyl]-6-oxo-4-(trifluoromethyl)-1H-pyridine-3-carboxamide], the Kd amounted to 5.24 nM.
Take `C[C@@H]1CN(c2cc(F)c(-c3cc(C(=O)NC(C)(C)CC(C)(C)C)c(F)cc3F)cc2NC(=O)c2c[nH]c(=O)cc2C(F)F)C[C@H](C)N1C` [Example 627, 4-(difluoromethyl)-N-[5-[2,4-difluoro-5-(2,4,4-trimethylpentan-2-ylcarbamoyl)phenyl]-4-fluoro-2-[(3R,5S)-3,4,5-trimethylpiperazin-1-yl]phenyl]-6-oxo-1H-pyridine-3-carboxamide]: the Kd was determined as 23.3 nM.
Turning to `C[C@H]1CN(c2cc(F)c(C3=CCN(C(=O)N4CCCC4)C3)cc2NC(=O)c2c[nH]c(=O)cc2C(F)F)CCN1C` [Example 629, (S)-4-(Sifluoromethyl)-N-(2-(3,4-dimethylpiperazin-1-yl)-4-fluoro-5-(1-(pyrrolidine-1-carbonyl)-2,5-dihydro-1H-pyrrol-3-yl)phenyl)-6-oxo-1,6-dihydropyridine-3-carboxamide], the Kd was found to be 2.22 nM.
On to `C[C@@H]1CN(c2cc(F)c(C3=CCN(C(=O)OC4(C)CCC4)C3)cc2NC(=O)c2c[nH]c(=O)cc2C(F)F)C[C@H](C)N1C` [Example 630, 1-Methylcyclobutyl 3-(5-(4-(difluoromethyl)-6-oxo-1,6-dihydropyridine-3-carboxamido)-2-fluoro-4-((3S,5R)-3,4,5-trimethylpiperazin-1-yl)phenyl)-2,5-dihydro-1H-pyrrole-1-carboxylate], for which the dissociation constant Kd is 1.98 nM.
In the case of `C[C@H]1CN(c2cc(F)c(C3=CCN(C(=O)OC4(C)CCC4)C3)cc2NC(=O)c2c[nH]c(=O)cc2C(F)F)CCN1C` [Example 631, 1-Methylcyclobutyl (S)-3-(5-(4-(difluoromethyl)-6-oxo-1,6-dihydropyridine-3-carboxamido)-4-(3,4-dimethylpiperazin-1-yl)-2-fluorophenyl)-2,5-dihydro-1H-pyrrole-1-carboxylate] it was 2.65 nM; in that of `C[C@@H]1CN(c2cc(F)c(-c3cc(C(N)=O)c(F)cc3F)cc2NC(=O)c2c[nH]c(=O)cc2C(F)(F)F)C[C@H](C)N1C` [Example 632, N-[5-(5-carbamoyl-2,4-difluorophenyl)-4-fluoro-2-[(3R,5S)-3,4,5-trimethylpiperazin-1-yl]phenyl]-6-oxo-4-(trifluoromethyl)-1H-pyridine-3-carboxamide], 11.4 nM.
Consider `C[C@@H]1CN(c2cc(F)c(-c3cc(C(N)=O)c(F)cc3F)cc2NC(=O)c2c[nH]c(=O)cc2C(F)F)C[C@H](C)N1C` [Example 633, N-[5-(5-carbamoyl-2,4-difluorophenyl)-4-fluoro-2-[(3R,5S)-3,4,5-trimethylpiperazin-1-yl]phenyl]-4-(difluoromethyl)-6-oxo-1H-pyridine-3-carboxamide], for which the dissociation constant Kd amounted to 11.9 nM.
In the case of `C[C@@H]1CN(c2cc(F)c(-c3cc(C(N)=O)c(F)cc3F)cc2NC(=O)c2ccc(F)cc2C(F)(F)F)C[C@H](C)N1C` [Example 634, 2,4-difluoro-5-[2-fluoro-5-[[4-fluoro-2-(trifluoromethyl)benzoyl]amino]-4-[(3R,5S)-3,4,5-trimethylpiperazin-1-yl]phenyl]benzamide] it was 69.5 nM.
The figure for `C[C@@H]1CN(c2cc(F)c(-c3cnc(N4CCC(C)(O)CC4)nc3)cc2NC(=O)c2ccc(F)cc2C(F)(F)F)C[C@H](C)N1C` [Example 636, 4-Fluoro-N-[4-fluoro-5-[2-(4-hydroxy-4-methylpiperidin-1-yl)pyrimidin-5-yl]-2-[(3R,5S)-3,4,5-trimethylpiperazin-1-yl]phenyl]-2-(trifluoromethyl)benzamide] is 1.42 nM.
